Test results from PMC8026400, “Osmium–arene complexes with high potency towards Mycobacterium tuberculosis” (Metallomics: Integrated Biometal Science, 2021).
In brackets after ≈: the same amount, converted by molar mass.

Columns and labels:
Mtb H37Rv = assay: MIC against Mtb H37Rv, resazurin microtitre assay; assay type: cell-based, Mycobacterium tuberculosis; details: 7-day exposure, Middlebrook 7H9 broth, 0.2% glycerol, 0.05% Tween 80, 10% ADC, three biological repeats
Mtb [1] = assay: Minimum bactericidal concentration against Mtb (CFU plating); assay type: cell-based, Mycobacterium tuberculosis; details: for bactericidal character against actively growing Mtb: from correlation of MBC with MIC; for MBC (minimal bactericidal concentration): lowest concentration with no CFUs on 7H10 medium
Procedure: The minimum bactericidal activity (MBC) was determined by setting up a microtitre plate as performed for the MIC determination. Instead of adding resazurin, each well from the microtitre plate was plated on to solid 7H10 medium and the CFUs were determined after incubation at 37°C. The lowest concentration at which no CFUs were counted was taken as the MBC. The MBCs were carried out with three independent experimental repeats.

[2] = system: MRC5 (human foetal lung fibroblast) cells; assay: Antiproliferative activity against human cell line, SRB assay; assay type: cell-based; details: 24 h drug exposure and 72 h recovery in drug-free medium
Procedure: MRC5 (human foetal lung fibroblast) cell lines were obtained from Public Health England (mycoplasma-free status confirmed at six-monthly intervals by internal and external screening). They were thawed upon receipt and the supernatant removed after centrifugation (1000 rpm, 5 min). Cells were re-suspended in DMEM culture medium (supplemented with 10% v/v FCS, 1% penicillin/streptomycin, and 1% L-glutamine) and grown as adherent monolayers at 310 K in a 5% CO2 humidified atmosphere. Cells were passaged using trypsin/EDTA after reaching ∼90% confluence. Trypsin activity was quenched by addition of excess medium, and the single-cell suspension passaged twice weekly. MRC5 fibroblasts were discarded after five passages.
Briefly, 5 × 10^3 cells (MRC5) were seeded in a 96-well plate using 0.15 mL of culture medium. After 48 h pre-incubation at 310 K, the supernatant was removed and cells exposed to six concentrations (0–100 µM) of osmium complex, for which exact concentrations were determined using ICP-OES (calibration standards for Os freshly prepared in 3.6% v/v nitric acid containing 100 mg L^–1 ascorbic acid and 10 mM thiourea). DMSO was used to aid solubility of Os complexes, but never exceeded 0.5% v/v in the final culture medium. Cells were exposed to Os complexes for 24 h, and then washed with PBS and allowed 72 h recovery time in drug-free medium. Cell viability was determined using the sulforhodamine B (SRB) assay. Cells were fixed using 50 µL of 50% TCA, incubated at 277 K for 1 h, and then stained using SRB dye (0.4% dye in 1% acetic acid). After 30 min, excess dye was removed by acetic acid washing, and then the stain liberated using Tris base (10 mM, pH 10.5). Absorbance was measured using a Thermo Scientific Multiskan FC microplate reader fitted with a 492-nm filter. Data were processed using Microsoft Excel and are reported as percentage survival relative to the untreated control. Sigmoidal dose/response curves were fitted using Origin 2016 to determine IC50. Data were acquired as duplicate of triplicate experiments, with a positive control of cisplatin (CDDP).

Mtb [3] = details: comparison values, no reference given; cited from earlier work

Compound	MIC (Mtb H37Rv)	IC50 [2]	other results
CN(C)c1ccc(N=Nc2ccccn2)cc1.Cc1ccc(C(C)C)cc1.F[P-](F)(F)(F)(F)F.[Cl][Os+] [Complex 1]	5 µM	7.1 ± 0.2 µM	bactericidal character against actively growing Mtb (Mtb [1]): bactericidal; MBC (minimal bactericidal concentration) (Mtb [1]): 12.5 µM
CN(C)c1ccc(N=Nc2ccccn2)cc1.Cc1ccc(C(C)C)cc1.F[P-](F)(F)(F)(F)F.[I][Os+] [Complex 2, [Os(AzPy-NMe2)I(p-cymene)]PF6]	1.25 µM	0.89 ± 0.01 µM	MBC (minimal bactericidal concentration) (Mtb [1]): 6.25 µM
CN(C)c1ccc(N=Nc2ccccn2)cc1.F[P-](F)(F)(F)(F)F.[Cl][Os+].c1ccc(-c2ccccc2)cc1 [Complex 3]	31.25 µM	16.9 ± 0.1 µM	
CN(C)c1ccc(N=Nc2ccccn2)cc1.F[P-](F)(F)(F)(F)F.[I][Os+].c1ccc(-c2ccccc2)cc1 [Complex 4]	2.5 µM	0.42 ± 0.03 µM	bactericidal character against actively growing Mtb (Mtb [1]): bactericidal; MBC (minimal bactericidal concentration) (Mtb [1]): 6.25 µM
CN(C)c1ccc(N=Cc2ccccn2)cc1.Cc1ccc(C(C)C)cc1.F[P-](F)(F)(F)(F)F.[Cl][Os+] [Complex 5]	31.25 µM	7.6 ± 0.9 µM	
CN(C)c1ccc(N=Cc2ccccn2)cc1.Cc1ccc(C(C)C)cc1.F[P-](F)(F)(F)(F)F.[I][Os+] [Complex 6]	7.81 µM	13 ± 2 µM	
CN(C)c1ccc(N=Nc2ccccn2)cc1.Cc1ccc(C(C)C)cc1.[Cl-].[I][Os+] [Complex 7]	1.25 µM	0.68 ± 0.03 µM	
CN(C)c1ccc(N=Nc2ccccn2)cc1.Cc1ccc(C(C)C)cc1.[I-].[I][Os+] [Complex 8]	1.25 µM	0.42 ± 0.01 µM	
Cc1ccc(C(C)C)cc1.F[P-](F)(F)(F)(F)F.[Cl][Os+].c1ccc(N=Nc2ccccn2)cc1 [Complex 9]	15.6 µM	15 ± 2 µM	
Cc1ccc(C(C)C)cc1.F[P-](F)(F)(F)(F)F.[I][Os+].c1ccc(N=Nc2ccccn2)cc1 [Complex 10]	5 µM	0.79 ± 0.06 µM	
Brc1ccc(N=Nc2ccccc2)nc1.Cc1ccc(C(C)C)cc1.F[P-](F)(F)(F)(F)F.[Cl][Os+] [Complex 11]	125 µM	18 ± 1 µM	
Cc1ccc(C(C)C)cc1.F[P-](F)(F)(F)(F)F.Fc1ccc(N=Nc2ccccc2)nc1.[I][Os+] [Complex 12]	15.6 µM	9.1 ± 0.6 µM	
F[P-](F)(F)(F)(F)F.Fc1ccc(N=Nc2ccccc2)nc1.[I][Os+].c1ccc(-c2ccccc2)cc1 [Complex 13]	62.5 µM	5.2 ± 0.7 µM	
Cc1ccc(C(C)C)cc1.Clc1ccc(N=Nc2ccccc2)nc1.F[P-](F)(F)(F)(F)F.[I][Os+] [Complex 14]	62.5 µM	16 ± 2 µM	
F[P-](F)(F)(F)(F)F.Oc1ccc(N=Cc2ccccn2)cc1.[I][Os+].c1ccc(-c2ccccc2)cc1 [Complex 15]	5 µM	13.5 ± 0.9 µM	
CO[C@H]1/C=C/O[C@@]2(C)Oc3c(C)c(O)c4c(O)c(c(/C=N/N5CCN(C)CC5)c(O)c4c3C2=O)NC(=O)/C(C)=C\C=C\[C@H](C)[C@H](O)[C@@H](C)[C@@H](O)[C@@H](C)[C@H](OC(C)=O)[C@@H]1C [Rifampicin, reference compound]			MIC (Mtb H37Rv; Mycobacterium tuberculosis, H37RV, 168 h): 0.38 to 0.76 µM (≈ 0.313 to 0.625 µg/mL)
CC[C@@H](CO)NCCN[C@@H](CC)CO [ethambutol]			MIC of current clinical TB drugs (Mtb [3]): ~5 µM
NNC(=O)c1ccncc1 [isoniazid]			MIC of current clinical TB drugs (Mtb [3]): ~1 µM
[H]/N=C(/N)N[C@H]1[C@H](O)[C@@H](O)[C@H](O[C@@H]2O[C@@H](C)[C@](O)(C=O)[C@H]2O[C@@H]2O[C@@H](CO)[C@H](O)[C@@H](O)[C@@H]2NC)[C@@H](N/C(N)=N\[H])[C@@H]1O [streptomycin]			MIC of current clinical TB drugs (Mtb [3]): ~9 µM
capreomycin			MIC of current clinical TB drugs (Mtb [3]): ~3 µM
